Test results reported in ChEMBL document CHEMBL4819002, “Design, synthesis, evaluation, and SAR of 4-phenylindoline derivatives, a novel class of small-molecule inhibitors of the programmed cell death-1/ programmed cell death-ligand 1 (PD-1/PD-L1) interaction” (Eur J Med Chem, 2021).
Activity calls are given as the source filed them. The calls are words filed in the database; no cut-off is given here.

What was measured:
[1] = target: T1, Programmed cell death protein 1/Programmed cell death 1 ligand 1 (Homo sapiens, UniProt Q9NZQ7); assay: Inhibition of PD1 (unknown origin)/PDL1 (unknown origin) protein-protein interaction by HTRF assay; format: protein-complex assay
[2] = target: T1, Programmed cell death protein 1/Programmed cell death 1 ligand 1; assay: Inhibition of PD-1/PD-L1 interaction in CHO cells expressing PD-Ll/TCR cocultured with human Jurkat cells expressing PD-1 assessed as activation of effector Jurkat T cells incubated for 6 hrs by luciferase reporter gene assay; format: cell-based
[3] = Cytotoxicity against CHO cells expressing PD-Ll /TCR cocultured with human Jurkat cells expressing PD-1 measured after 24 hrs by Cell Titer-Glo based luminescent cell viability assay; format: functional
[4] = target: T2, Programmed cell death protein 1/Programmed cell death 1 ligand 1 (Homo sapiens) (UniProt Q15116+Q9NZQ7); assay: Inhibition of PD-1/PD-L1 interaction in CHO cells expressing PD-Ll/TCR cocultured with human Jurkat cells expressing PD-1 assessed as maximum relative luminescence intensity value at > 3.3 uM incubated for 6 hrs by luciferase reporter gene assay; format: cell-based; conditions: dose microM >3.3, time 6.0 hrs
[5] = target: T2, Programmed cell death protein 1/Programmed cell death 1 ligand 1 (Homo sapiens); assay: Inhibition of PD-1/PD-L1 interaction in CHO cells expressing PD-Ll/TCR cocultured with human Jurkat cells expressing PD-1 assessed as maximum relative luminescence intensity value upto 10 uM incubated for 6 hrs by luciferase reporter gene assay; format: cell-based; conditions: dose microM <=10, time 6.0 hrs
[6] = target: T2, Programmed cell death protein 1/Programmed cell death 1 ligand 1 (Homo sapiens); assay: Inhibition of PD-1/PD-L1 interaction in CHO cells expressing PD-Ll/TCR cocultured with human Jurkat cells expressing PD-1 assessed as maximum relative luminescence intensity value incubated for 6 hrs by luciferase reporter gene assay; format: cell-based

T1 sequence (Q15116 whole entry): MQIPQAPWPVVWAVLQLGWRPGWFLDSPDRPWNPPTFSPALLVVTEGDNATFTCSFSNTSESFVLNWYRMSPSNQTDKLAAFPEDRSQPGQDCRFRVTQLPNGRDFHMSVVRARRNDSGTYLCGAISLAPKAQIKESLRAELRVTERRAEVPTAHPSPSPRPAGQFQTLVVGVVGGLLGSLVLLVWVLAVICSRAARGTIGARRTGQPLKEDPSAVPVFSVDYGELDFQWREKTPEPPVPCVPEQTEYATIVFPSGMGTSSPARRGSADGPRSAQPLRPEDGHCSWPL
T1 sequence (Q9NZQ7 whole entry): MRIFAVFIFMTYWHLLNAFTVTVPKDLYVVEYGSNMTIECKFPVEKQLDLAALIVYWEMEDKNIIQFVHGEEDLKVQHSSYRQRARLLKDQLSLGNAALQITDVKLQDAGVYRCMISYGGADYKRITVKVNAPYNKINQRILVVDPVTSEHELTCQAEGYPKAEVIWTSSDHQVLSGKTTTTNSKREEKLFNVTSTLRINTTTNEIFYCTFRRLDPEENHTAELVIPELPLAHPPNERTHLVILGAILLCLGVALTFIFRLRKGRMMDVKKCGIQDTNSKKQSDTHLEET

SMILES | IC50 [1] [nM] | other results
CC(=O)NCCNCc1cc(Cl)c(OCc2cccc(-c3cccc4c3CCN4CCCn3cccc3)c2C)cc1OCc1cccc(C#N)c1 | 2470 | –
CC(=O)NCCNCc1cc(Cl)c(OCc2cccc(-c3cccc4c3CCN4CCCN3CCC(O)C3)c2C)cc1OCc1cccc(C#N)c1 (stereo unspecified) | 63 | –
Cc1c(COc2cc(OCc3cncc(C#N)c3)c(CNC(CO)CO)cc2Cl)cccc1-c1cccc2c1CCN2CCCN1CCC(O)CC1 | 38 | –
CC(=O)NCCNCc1cc(Cl)c(OCc2cccc(-c3cccc4c3CCN4CCCN3CCC(O)CC3)c2C)cc1OCc1ccccc1 | 446 | –
COC(=O)[C@H](CO)NCc1cc(Cl)c(OCc2cccc(-c3cccc4c3CCN4CCCN3CCC(O)CC3)c2C)cc1OCc1cncc(C#N)c1 | 41 | –
CC(=O)NCCNCc1cc(Cl)c(OCc2cccc(-c3cccc4c3CCN4CCCN3CCC(O)CC3)c2C)cc1OCc1cccnc1 | 79 | –
CC(=O)NCCNCc1cc(Cl)c(OCc2cccc(-c3cccc4c3CCN4CCCN3CCCC3)c2C)cc1OCc1cccc(C#N)c1 | 77 | –
CC(=O)NCCNCc1cc(Cl)c(OCc2cccc(-c3ccc4c(c3)OCCO4)c2C)cc1OCc1cccc(C#N)c1 | 40 | EC50 [2]: > 3300 nM; GI50 [3]: 6300 nM; Activity [4]: inactive
Cc1c(COc2cc(OCc3cncc(C#N)c3)c(CN[C@@H](CO)C(=O)O)cc2Cl)cccc1-c1cccc2c1CCN2CCCN1CCC(O)CC1 | 12 | EC50 [2]: 2900 nM; RLU [5]: 1710; GI50 [3]: > 20000 nM; Activity [6]: Dose-Dependent Effect
CCN(CC)CCCN1CCc2c(-c3cccc(COc4cc(OCc5cccc(C#N)c5)c(CNCCNC(C)=O)cc4Cl)c3C)cccc21 | 114 | –
Cc1c(COc2cc(OCc3cncc(C#N)c3)c(CNCCO)cc2Cl)cccc1-c1cccc2c1CCN2CCCN1CCC(O)CC1 | 31 | –
CC(=O)NCCNCc1cc(Cl)c(OCc2cccc(-c3cccc4c3CCN4CCCN3CCCCC3)c2C)cc1OCc1cccc(C#N)c1 | 197 | –
CC(=O)NCCNCc1cc(Cl)c(OCc2cccc(-c3cccc4c3CCN4C)c2C)cc1OCc1cccc(C#N)c1 | 878 | –
CC(=O)NCCNCc1cc(Cl)c(OCc2cccc(-c3cccc4c3CCN4CCCN3CCC(F)C3)c2C)cc1OCc1cccc(C#N)c1 (stereo unspecified) | 202 | –
CCN1CCc2c(-c3cccc(COc4cc(OCc5cccc(C#N)c5)c(CNCCNC(C)=O)cc4Cl)c3C)cccc21 | 743 | –
CC(=O)NCCNCc1cc(Cl)c(OCc2cccc(-c3cccc4c3CCN4CCCN3CCC(O)CC3)c2C)cc1OCc1cncc(C#N)c1 | 17 | EC50 [2]: 430 nM; RLU [5]: 1910; GI50 [3]: 16900 nM; Activity [6]: Dose-Dependent Effect
CC(=O)NCCNCc1cc(Cl)c(OCc2cccc(-c3cccc4c3CCN4CCCN3CCC3)c2C)cc1OCc1cccc(C#N)c1 | 98 | –
CC(=O)NCCNCc1cc(Cl)c(OCc2cccc(-c3cccc4c3CCN4CCCN3CCC(O)CC3)c2C)cc1OCC1CCCCC1 | 1130 | –
CCCN1CCc2c(-c3cccc(COc4cc(OCc5cccc(C#N)c5)c(CNCCNC(C)=O)cc4Cl)c3C)cccc21 | 1730 | –
COCCCN1CCc2c(-c3cccc(COc4cc(OCc5cccc(C#N)c5)c(CNCCNC(C)=O)cc4Cl)c3C)cccc21 | 905 | –
CC(=O)NCCNCc1cc(Cl)c(OCc2cccc(-c3cccc4c3CCN4CCCN3CCC(O)CC3)c2C)cc1OCc1cccc(C#N)c1 | 58 | –
CC(=O)NCCNCc1cc(Cl)c(OCc2cccc(-c3cccc4c3CCN4CCCN3CCC(F)CC3)c2C)cc1OCc1cccc(C#N)c1 | 878 | –
CC(=O)NCCNCc1cc(Cl)c(OCc2cccc(-c3cccc4c3CCN4CCCN3CCOCC3)c2C)cc1OCc1cccc(C#N)c1 | 185 | –
CC(=O)NCCNCc1cc(Cl)c(OCc2cccc(-c3cccc4c3CCN4CCN3CCC(O)CC3)c2C)cc1OCc1cccc(C#N)c1 | 322 | –
CC(=O)NCCNCc1cc(Cl)c(OCc2cccc(-c3cccc4c3CCN4)c2C)cc1OCc1cccc(C#N)c1 | 1360 | –
